Here are results for 1 compound from patent US11713447B2, “Production of megakaryoctye compositions and therapies for treatment of thrombocytopenia” (Icahn School of Medicine at Mount Sinai, priority 2016, dated 2023).

Each structure is given as a SMILES string.

Assay [1] concerns Cord blood (CB) CD34+ cells. In words: Ex vivo expansion of CB CD34+ cells in serum-free culture with valproic acid. In kind it is cell-based. As for the experimental part:
Cord blood (CB) CD34+ cells were obtained and separated into a testing group and a control group. The groups were subjected to the following cell culture protocol:
The CB CD34+ cells were primed with a cytokine cocktail and plated in serum-free (SF) culture. The cytokine cocktail included stem cell factor (SCF) at an amount of 150 ng/mL, interleukin-3 (IL-3) at an amount of 50 ng/mL, Fms-like tyrosine kinase 3 (FLT-3) at an amount of 100 ng/mL, and thrombopoietin (TPO) at an amount of 100 ng/mL.
1 mM valproic acid (VPA) was added to the SF culture (testing group only). No VPA was added to the control group.
The cells were allowed to expand in the SF culture and collected at Day 7. Total CD34+ cell expansion was around 200-fold.

For assay [2], the system named is Cord blood (CB) CD34+ cells. In words: TPO-mediated MK differentiation after VPA expansion of CB CD34+ cells. Format: cell-based. As for the experimental part: For this, 50,000 cryopreserved CB CD34+ cells were plated in serum-free (SF) media supplemented with stem cell factor (SCF), interleukin-3 (IL-3), Fms-like tyrosine kinase 3 (FLT-3), and TPO and allowed to expand with or without VPA (testing vs. control), as described in Example 1 above. After 7 days, instead of collecting, the cells were washed to remove VPA and cytokines, and re-plated in SF medium supplemented only with TPO. Approximately 50% more CD41+ MKs were detected in the VPA-expanded cultures than in cultures expanded with only cytokines (FIG. 3A). This corresponded to a final yield of ˜40 MKs generated from 1 CD34+ cell plated in the presence of VPA compared to […] CD41+ MKs generated by 1 CD34+ cell plated in the absence of VPA. q-PCR analyses confirmed upregulation of MK-specific genes (GATA1, PF4, and NFE2) in the cultures exposed to VPA before MK differentiation (FIG. 3B).

Take `CCCC(CCC)C(=O)O` [VPA, valproic acid]: the “number of CD34+ cells in VPA-treated cultures relative to cells expanded in the absence of VPA” value in assay [1] (1 mM VPA added day 1, SF culture with SCF, IL-3, FLT-3, TPO) is given as over 200 fold. In addition, the “Total CD34+ cell expansion” value in assay [1] (1 mM VPA, SF culture, collected at Day 7) was “around 200 fold”. In assay [1] (VPA-treated SF culture), the “CD41+ MK cells in expanded HSCs” value is 8.9±2%, the “glycophorin (GPA)+ erythroid cells in expanded HSCs” value came out at 17±5.4% and the “primitive CD34+/CD90+ cells in expanded HSCs” value amounted to 74.2±9.8%. The “more CD41+ MKs in VPA-expanded cultures than in cultures expanded with only cytokines” value in assay [2] (7 days expansion with VPA, then SF medium with TPO only) is on record as “Approximately 50%”. Further, the “q-PCR expression of MK-specific genes (GATA1, PF4, and NFE2)” value in assay [2] (cultures exposed to VPA before MK differentiation) is listed as “upregulation”. Also, the “final yield of MKs generated from 1 CD34+ cell plated” value in assay [2] (plated in the presence of VPA) is given as 40 MKs generated from 1 CD34+ cell.
